Reference: paper PMC9888311, “Neonatal NET-Inhibitory Factor improves survival in the cecal ligation and puncture model of polymicrobial sepsis by inhibiting neutrophil extracellular traps” (Frontiers in Immunology, 2023)
Where no end group is shown, it is not given here.

Assays:
[1] = test system: peritoneal fluid and stool microbiomes; test: 16S rRNA gene sequencing of peritoneal fluid and stool microbiomes; type: in vivo, mouse (outbred Swiss Webster); settings: CLP-treated mice; for relative abundance of Enterobacteriaceae in stool and peritoneal fluid: ANCOM-BC, relative to vehicle; for Bray-Curtis distance of peritoneal fluid microbiome from stool microbiome: each group compared to vehicle
Protocol: Libraries were constructed for sequencing approximately 460 bp of the variable V3 and V4 regions of 16S rRNA using a two-step PCR process. Genomic DNA (5 to 20 ng) was PCR amplified for 14 cycles using the Quick-16S Primer Set V3-V4 (Zymo Research cat# D6405-2-400) with NEBNext Ultra II Q5 Master Mix (NEB cat# M0544). Dual unique indexing adapters (Illumina cat#20027213) were added to the amplicons during a second PCR reaction (6 cycles). 16S libraries were qualified on an Agilent Technologies 4150 TapeStation using a D1000 ScreenTape assay (cat# 5067-5582 and 5067-5583, respectively) and the molarity of adapter-modified molecules was defined by quantitative PCR using the Kapa Biosystems Kapa Library Quant Kit (cat#KK4824). Libraries were normalized and pooled (12 pM) and chemically denatured along with 15% molar representation of PhiX library in preparation for sequencing on an Illumina MiSeq instrument in paired-end 300 cycle mode. Raw 16S sequences were read in and processed with […] 2021.11 plugins ([33]). In brief, demultiplexed and quality-filtered sequences were first trimmed of primer and linker sequences with the Cutadapt plugin, then denoised to ASVs using DADA2 ([34], [35]). […] Diversity metrics, distances, and statistical significance of beta diversity groupings by permanova were further calculated within […]2 artefacts were then read into R and genera tested for differential abundances using ANCOM-BC implemented in the microbiomeMarker package ([37], [38]). Scripts used for processing and analyses have been deposited along with processed QIIME2 artifact files at: https://github.com/wzacs1/Araujo_nNIF. Raw sequences have been deposited in the NCBI SRA under BioProject accession PRJNA884333.

[2] = test system: neutrophil extracellular traps (NETs), peritoneal fluid; test: Peritoneal fluid NET formation (confocal live cell imaging, MPO-DNA complex ELISA); type: in vivo, mouse (outbred Swiss Webster); settings: 24 hours after CLP; nNIF 1 mg/kg IV or meropenem 25 mg/kg IP at 4 and 10 hours after CLP; compared to vehicle, scrambled peptide and meropenem groups; N=5-9
Protocol: We evaluated mouse NET formation via live cell imaging with confocal microscopy as previously described ([12]). Sham mice and CLP animals from all experimental groups were euthanized by CO2 inhalation and the peritoneal fluid was collected. An aliquot of 100 μL of the peritoneal fluid was placed on glass coverslips coated with poly-L-lysine for 1 hour at 37°C in 5% CO2/95% air. NET formation was assessed using cell-permeable (SYTO Green, Molecular Probes) and cell-impermeable (SYTOX Orange, Molecular Probes) DNA fluorescent stains. Using a FV3000 1X81 confocal microscope and FluoView software (Olympus) with 20X and 60X objectives, we obtained z-series images over a range of 20 μm with a 1 μm step size for each field. We processed these images using FluoView (Olympus), Photoshop (Adobe), and ImageJ (NIH) software. An in-house ELISA was used to quantify MPO-DNA complexes in plasma and peritoneal fluid from sham and CLP mice 24 hours after the surgical procedure ([24], [27]). Briefly, after overnight coating with anti-MPO capture antibody in calcium carbonate coating buffer (2 µg/ml; 0400-0002, Bio-Rad) at 4°C, a 96-well plate was blocked with 2.5% bovine serum albumin in PBS for 2 hours at room temperature. The plate was subsequently washed, before incubating for 90 minutes at room temperature with 10% peritoneal fluid in blocking buffer. […]

whole blood leukocytes = test: Whole blood WBC and neutrophil counts (flow cytometry); type: in vivo, mouse (outbred Swiss Webster); settings: 24 hours after CLP; nNIF 1 mg/kg IV at 4 and 10 hours after CLP; N=3-5
Protocol: (§1) Twenty-four hours after CLP or sham surgery, total white blood cell and differential neutrophil counts were determined both in whole blood samples collected from orbital vein using heparinized capillaries tubes and peritoneal fluid by washing with 3 mL of PBS, respectively. Then, samples were incubated with CD45 APC-Cy7 (Biolegend), CD11b PE-Cy7 (EBioscience), Ly6G BV510 (Biolegend), and CD16/CD32 (Fc-block, EBioscience) for 30 minutes at 37 °C. Thirty minutes later, cells were washed, fixed, and ran on a Beckman Coulter Cytoflex located in the University of Utah Flow Cytometry Core.

neutrophils = neutrophils exposed to nNIF; cited from earlier work
Source text: When considering the low DNA staining on confocal imaging of peritoneal leukocytes, it may be that the NET inhibition contributes to decreased endothelial dysfunction ([48]) and prevents immunothrombosis ([22]) which then leads to decreased inflammation. Alternatively, or in combination, the lack of NETs may lead to decreased opportunities to capture bacteria and thereby limit the chance that circulating PMNs will recognize and become acti ...

[3] = test system: peritoneal fluid leukocytes; test: Peritoneal fluid WBC and neutrophil counts (flow cytometry); type: in vivo, mouse (outbred Swiss Webster); settings: 24 hours after CLP; nNIF 1 mg/kg IV at 4 and 10 hours after CLP; N=5-9
Protocol: as §1

TNF-α = test: Peritoneal fluid cytokine multiplex array, TNF-α; type: in vivo, mouse (outbred Swiss Webster); settings: 24 h after CLP; nNIF 1 mg/kg at 4 and 10 hours; compared to all other treatment groups; N=5-9
Protocol: (§2) Peritoneal fluid cytokines were analyzed using a mouse Cytokine/Chemokine Panel I Multiplex Array (Millipore Sigma catalog# HCYTMAG60-PMX41) according to manufacturer’s instructions on a Luminex 200 instrument. Bacterial counts in whole blood and peritoneal lavage were determined 24 hours after CLP. Briefly, peritoneal fluid and blood samples were collected, serially diluted, plated on LB-agar dishes, and incubated at 37°C for 24 hours. The number of bacterial colonies was counted and expressed as CFU/mL.

IL-10 = test: Peritoneal fluid cytokine multiplex array, IL-10; type: in vivo, mouse (outbred Swiss Webster); settings: 24 h after CLP; nNIF 1 mg/kg at 4 and 10 hours; N=5-9
Protocol: as §2

[4] = single dose 10 mg/kg, retro-orbital venous injection; LC/MS/MS; N=2-3 mice/time point
Protocol: PK plasma sample generation – Mature Swiss-Webster mice were inject ed with nNIF (10 mg/kg,
0.003% DMSO in PBS) via retro-orbital venous injection. Blood samples were obtain ed via
cheek bleed and cardiac puncture at 5, 15, 30, and 45 minutes, and at 1, 4, 8, 12, 24, and 48 hours
after nNIF injection. Only three blood samples were drawn from each indiv idual mouse, and
multiple mice were used to generate 2 -3 plasma samples per timepoint for PK analysis. Blood
samples were collected i n heparin coated capillary tubes, centrifuged at 1000 rpm for 10 minutes,
and snap-frozen in liquid nitrogen. Plasma samples were kept frozen at -80°C until analysis.
Mouse plasma PK quantitative bioanalysis – Flash -frozen mouse samples were thawed on ice
and spiked with 100 nM nNIF-H; precipitated with five volumes of 90% acetonitrile, 1% acetic
acid, and 0.1% formic acid in water; and filtered through a Phree Phosphol ipid Removal
Extraction Plate (Pheno menex). Standards with known concent rations of nNIF (100 pM to 25
μM) and nNIF-H (100 n M) spiked into mouse plasma were p repared using the same methods.
Supernatants were an alyzed by LC/MS/MS on an ExionLC UHPLC system coupled to a QTRAP […]
positive-ion mode. Mass transitions (m/z) used for quantitation were 846.9/ 976.1 and
determined from the nNIF/nNIF-H peak area ratio in extracted-ion chromat ograms compared […]

IL-6 = test: Peritoneal fluid cytokine multiplex array, IL-6; type: in vivo, mouse (outbred Swiss Webster); settings: 24 h after CLP; nNIF 1 mg/kg at 4 and 10 hours; N=5-9
Protocol: as §2

Molecule	relative abundance of Enterobacteriaceae in stool and peritoneal fluid [1]	Bray-Curtis distance of peritoneal fluid microbiome from stool microbiome [1]	peritoneal fluid NET formation (MPO-DNA complexes, confocal microscopy) [2]	peritoneal fluid and stool microbiomes (beta diversity, Bray-Curtis, PERMANOVA) ([1]; 16S rRNA V3/V4 sequencing, N=5-7 per group)	whole blood white blood cell and neutrophil counts (whole blood leukocytes)	neutrophil ability to generate reactive-oxygen species and phagocytize E. coli bioparticles (neutrophils)	peritoneal WBC and neutrophil counts [3]	TNF-α level in peritoneal fluid (TNF-α)	IL-10 level in peritoneal fluid (IL-10)	nNIF plasma concentration-time course [4]	IL-6 level in peritoneal fluid (IL-6)
C[C@@H](O)[C@H]1C(=O)N2C(C(=O)O)=C(S[C@@H]3CN[C@H](C(=O)N(C)C)C3)[C@H](C)[C@H]12 [meropenem, reference compound]	decreased in stool and peritoneal fluid	more similar stool and peritoneal microbiomes	equivalent between the vehicle and meropenem arms								
KFNKPFVFLMIEQNTKSPLFMGKVVNPTQ-OH [nNIF, neonatal NET-Inhibitory Factor]	did not affect their abundances	as dissimilar from their stool counterparts as were vehicle controls	reduced NET formation qualitatively and quantitatively	did not alter the peritoneal fluid and stool microbiomes	without affecting white blood cell or neutrophil counts	still maintain their ability	without altering peritoneal WBC and neutrophil counts	decreased TNF-α levels in peritoneal fluid	lack of an nNIF-associated alteration in IL-10 levels	initial rapid decrease in nNIF plasma concentrations followed by a slower rate of decay	decreased compared to meropenem treated mice but not compared to the nNIF-SCR treatment group
